The source of these data is US20210369720A1, “SYNERGISTIC COMPOSITION HAVING NEUROPROTECTIVE PROPERTIES AND METHODS OF USE THEREOF” (Rutgers, The State University of New Jersey, priority 2018, published 2021).

The test system of data set [1] is Syn^Tg mice. Conditions: cited from earlier work.
In data set [2] the test system is TH positive dopaminergic neurons of the substantia nigra. The experiment in a line: Nigral TH positive neuron count, α-Syn PFF inoculated WT mice. The class given is in vivo. Conditions: each compound individually, PFF alone reduced neurons by 51% vs PBS. An excerpt:
(§1) Thy1-α-synuclein transgenic mice (Syn^Tg) on BDF1 background overexpressing human wild-type α-synuclein under the control of the Thy1 promoter were maintained by mating heterozygous transgenic females with WT BDF1 males (Rockenstein E, et al. (2002) Differential neuropathological alterations in transgenic mice expressing alpha-synuclein from the platelet-derived growth factor and Thy-1 promoters. J Neurosci Res 68(5):568-578). BDF1 mice (mixed C57BL/6-DBA/2) were generated every three months by mating female C57BL/6 (The Jackson Laboratory) and male DBA/2 mice (Charles River). Experiments were performed with male transgenic mice and their WT littermates. […] Wild-type littermates received regular water and control chow. […] At two months of age, mice were inoculated with α-Syn PFF unilaterally in the striatum. These treatments continued throughout the experiment until animals were sacrificed. Mice were weighed and their food and water intake was quantified weekly. Animals were housed 2-5/cage in an AAALAC approved facility in a temperature- and humidity-controlled environment under a 12-hour light/dark cycle and were maintained on a diet of lab chow and water ad libitum. […]

The subject of data set [3] is SH-SY5Y cells. The experiment in a line: Cytotoxicity of α-Syn PFF by propidium iodide (PI) exclusion in SH-SY5Y cells. It counts as cell-based, Human. Conditions: SH-SY5Y cells challenged with mouse α-Syn PFF for seven days; vs untreated α-Syn PFF-challenged cells (2.5 fold increase of PI positive cells).
Data set [4] deals with GFAP. The experiment in a line: Immunohistochemical staining of GFAP in the cortex, Syn^Tg mice. The class given is in vivo. Conditions: EHT 12 mg/kg/day and/or caffeine 50 mg/kg/day until six months of age. The source says:
Neuroinflammation is one of the neuropathological features of PD and models of α-synucleinopathy including Syn^Tg mice (Lee K W, et al. (2011) Enhanced phosphatase activity attenuates alpha-synucleinopathy in a mouse model. J Neurosci 31(19):6963-6971).
Thy1-α-synuclein transgenic mice (Syn^Tg) on BDF1 background overexpressing human wild-type α-synuclein under the control of the Thy1 promoter were maintained by mating heterozygous transgenic females with WT BDF1 males (Rockenstein E, et al. (2002) Differential neuropathological alterations in transgenic mice expressing alpha-synuclein from the platelet-derived growth factor and Thy-1 promoters. J Neurosci Res 68(5):568-578). BDF1 mice (mixed C57BL/6-DBA/2) were generated every three months by mating female C57BL/6 (The Jackson Laboratory) and male DBA/2 mice (Charles River). Experiments were performed with male transgenic mice and their WT littermates. […] Wild-type littermates received regular water and control chow. […] Mice were weighed and their food and water intake was quantified weekly. […]
(§2) Vectastain elite ABC kit (Vector Laboratories, Burlingame, Calif.) and 3,3′-diaminobenzidine (Sigma-Aldrich) were used for amplifying and color development. […] For other stains, the whole microscopic field was analyzed. For p-α-Syn stains in the cortex, four matching regions in each of two sections per animal were counted.

The test system of data set [5] is phosphorylated α-synuclein (p-α-Syn). The data set is described as follows: Immunohistochemical staining of p-α-Syn, Syn^Tg mice. It counts as in vivo. Conditions: EHT 12 mg/kg/day and/or caffeine 50 mg/kg/day until six months of age, vs untreated Syn^Tg mice.
Text: as §1, with “weekly.” for “weekly. Animals were housed 2-5/cage in an AAALAC approved facility in a temperature- and humidity-controlled environment under a 12-hour light/dark cycle and were maintained on a diet of lab chow and water ad libitum.”
as §2

For data set [6], the system named is PP2A. The data set is described as follows: Western blot of PP2A methylation, ipsilateral striatal tissue lysates of α-Syn PFF inoculated mice. The class given is in vivo. Conditions: EHT 12 mg/kg/day and/or caffeine 50 mg/kg/day, vs untreated α-Syn PFF inoculated mice. The source says:
Thy1-α-synuclein transgenic mice (Syn^Tg) on BDF1 background overexpressing human wild-type α-synuclein under the control of the Thy1 promoter were maintained by mating heterozygous transgenic females with WT BDF1 males (Rockenstein E, et al. (2002) Differential neuropathological alterations in transgenic mice expressing alpha-synuclein from the platelet-derived growth factor and Thy-1 promoters. J Neurosci Res 68(5):568-578). BDF1 mice (mixed C57BL/6-DBA/2) were generated every three months by mating female C57BL/6 (The Jackson Laboratory) and male DBA/2 mice (Charles River). Experiments were performed with male transgenic mice and their WT littermates. […] Wild-type littermates received regular water and control chow. […] At two months of age, mice were inoculated with α-Syn PFF unilaterally in the striatum. These treatments continued throughout the experiment until animals were sacrificed. Mice were weighed and their food and water intake was quantified weekly. Animals were housed 2-5/cage in an AAALAC approved facility in a temperature- and humidity-controlled environment under a 12-hour light/dark cycle and were maintained on a diet of lab chow and water ad libitum. All animal procedures were approved by the Rutgers-Robert Wood Johnson Medical School Institutional Animal Care and Use Committee and were performed according to the National Institutes of Health Guide for the Care and Use of Laboratory Animals.
α-Syn PFF solution was sonicated at 60% amplitude 30 times (0.5 sec on, 0.5 sec off). During the stereotactic surgery, two month old WT C57BL/6 mice were anesthetized by Ketamine/xylazine (90/4.5 mg/kg, i.p., Ketaset from Zoetis, and Anased from Akorn) and positioned in a digital stereotaxic apparatus (Stoelting, Wood Dale, Ill.). […]
Human neuroblastoma SH-SY5Y cells were cultured in DMEM-F12 with 10% FBS. […] Protein concentration was determined by bicinchonic acid (BCA) method (Pierce), equal amount of protein was separated on 5-20% SDS-PAGE gel (Genescript) and transferred to nitrocellulose or PVDF membrane (Biorad). […]

Data set [7] deals with MAP2. The data set is described as follows: Immunofluorescence staining of MAP2 in the cortex, Syn^Tg mice. It counts as in vivo. Conditions: EHT 12 mg/kg/day and/or caffeine 50 mg/kg/day until six months of age.
Text: as §1

On to `CCCCCCCCCCCCCCCCCCCC(=O)NCCc1c[nH]c2ccc(O)cc12` [EHT, eicosanoyl-5-hydroxytryptamide], for which the “molecular, histochemical, and behavioral benefits” value in data set [1] (EHT 12 mg/kg/day in chow, nine months of treatment) is given as “partial amelioration”. For the same molecule, the “PP2A methylation in brain tissue lysates” value in data set [1] (EHT alone for nine months, dose dependent, more evident at 120 mg/kg/day) is on record as “modulated PP2A methylation”. Also, the “accumulation of p-α-Syn” value in data set [1] (EHT alone for nine months, more evident at 120 mg/kg/day) is “reduced the accumulation of p-α-Syn”. Also, the “prevention of the reduction of TH positive dopaminergic neurons of the substantia nigra” value in data set [2] was “did not prevent this reduction”. Moreover, the “cytotoxicity of α-Syn PFF, number of PI positive cells (cell viability)” value in data set [3] was “modestly protected”. Besides, in data set [4], the “astrocytic proliferation (GFAP) in the cortex” value was “partially but insignificantly attenuated”. Further, the “number of p-α-Syn immunoreactive cells, hippocampus (FIG. 2B)” value in data set [5] is listed as “reduced p-α-Syn positive cells”. In data set [6], the “methyl- to demethyl-PP2A ratio” value was “insignificant increase” and the methyl-PP2A levels entry is given as “insignificant increase”. Moreover, the “MAP2 in the cortex (neuritic integrity)” value in data set [7] is “did not improve this profile”.
